Assay results: the Deep4Chem optical property database
Several values for one entry are separate records, joined by “and”; a condition that tells them apart may be missing. Identical values can stand only once. Blank lines part the entries; values can stand above or below the compound they belong to.

Experiment: solvent given as SMILES

Structure (SMILES): COC(=O)c1cccc2c1C#Cc1c(NC(C)=O)cccc1OCCCO2
absorption maximum (in CC#N): 335 nm
absorption maximum (in ClCCl): 341 nm

Structure (SMILES): CCCCCCCCCCCCCCCCn1c(-c2cc(-c3nc4ccccc4n3CCCCCCCCCCCCCCCC)cc(-c3nc4ccccc4n3CCCCCCCCCCCCCCCC)c2)nc2ccccc21
absorption maximum (in ClCCl): 301 nm

Structure (SMILES): Nc1ccc(-c2ccc(N)cc2)cc1
absorption maximum (in C1CCOC1): 306 nm
absorption maximum (in C1COCCO1): 289 nm
absorption maximum (in CC#N): 286 nm
absorption maximum (in CCCCCC): 279 nm
absorption maximum (in CCOC(C)=O): 285 nm
absorption maximum (in CN(C)C=O): 299 nm
absorption maximum (in CO): 281 nm
absorption maximum (in CS(C)=O): 292 nm
absorption maximum (in Cc1ccccc1): 295 nm
absorption maximum (in ClC(Cl)Cl): 305 nm
absorption maximum (in ClCCl): 286 nm
absorption maximum (in O): 281 nm

Structure (SMILES): CCCCC(CC)CO[N+](=O)[O-] (stereo not drawn)
absorption maximum (in CO): 218 nm
absorption maximum (in O): 198 nm

Structure (SMILES): Fc1c(F)c(F)c([B-]2(c3c(F)c(F)c(F)c(F)c3F)Oc3c(ccc4c5c(ccc34)C=[N+](c3ccccc3)[B-](c3c(F)c(F)c(F)c(F)c3F)(c3c(F)c(F)c(F)c(F)c3F)O5)C=[N+]2c2ccccc2)c(F)c1F
absorption maximum (in C1CCOC1): 522 nm
absorption maximum (in CC#N): 515 nm
absorption maximum (in CC(C)=O): 515 nm
absorption maximum (in Cc1ccccc1): 531 nm
absorption maximum (in ClCCl): 533 nm

Structure (SMILES): CCCCCCCCCCCCN1C(=O)c2c(c3ccc4cc(-c5ccc(C(F)(F)F)cc5)c(OC)cc4c3c3c2ccc2cc(-c4ccc(C(F)(F)F)cc4)c(OC)cc23)C1=O
absorption maximum (in ClCCl): 427 nm

Structure (SMILES): CCN(CC)c1ccc(-c2nc3c4ccccc4n(C)c3nc2-c2ccc([B-](F)(c3c(C)cc(C)cc3C)c3c(C)cc(C)cc3C)cc2)cc1
absorption maximum (in C1CCOC1): 411.11 nm

Structure (SMILES): F[B-]1(F)n2c(Oc3ccccc3)c(Cl)c(Br)c2C(Oc2ccccc2)=C2C(Br)=C(Cl)C(Oc3ccccc3)=[N+]21
absorption maximum (in ClCCl): 533 nm

Structure (SMILES): Cc1cc(C)c(C2=C3C=C(/C=C/C(=O)OC(C)(C)C)C=[N+]3[B-](F)(F)n3cc(/C=C/C(=O)OC(C)(C)C)cc32)c(C)c1
absorption maximum (in ClCCl): 580 nm

Structure (SMILES): CCN(CC)c1ccc2cc(-c3nc4cc(C(=O)Nc5ccc(C)cc5[N+](=O)[O-])ccc4o3)c(=O)oc2c1
absorption maximum (in ClCCl): 445 nm

Structure (SMILES): c1ccc(N(c2ccccc2)c2cc3c4c(c2)N(c2ccccc2)c2cc5c(cc2B4c2ccccc2N3c2ccccc2)B2c3ccccc3N(c3ccccc3)c3cc(N(c4ccccc4)c4ccccc4)cc(c32)N5c2ccccc2)cc1
absorption maximum (in Cc1ccccc1): 457 nm

Structure (SMILES): O=C1OC(c2ccccc2)=N/C1=C\c1ccccc1
absorption maximum (in C1COCCO1): 363 nm

Structure (SMILES): CCCCCCCCCCCCOc1cc(C(=O)Nc2ccc(-c3ccc4c(c3)C(=O)c3cc(-c5ccc(NC(=O)c6cc(OCCCCCCCCCCCC)c(OCCCCCCCCCCCC)c(OCCCCCCCCCCCC)c6)cc5)ccc3-4)cc2)cc(OCCCCCCCCCCCC)c1OCCCCCCCCCCCC
absorption maximum (in C1CCOC1): 447 nm

Structure (SMILES): CCOC(=O)/C(C#N)=C\c1cn(-c2ccccc2)nc1-c1ccccc1
absorption maximum (in C1CCOC1): 347 nm
absorption maximum (in C1COCCO1): 348 nm
absorption maximum (in CCO): 347 nm
absorption maximum (in CCOC(C)=O): 346 nm
absorption maximum (in CN(C)C=O): 347 nm
absorption maximum (in CO): 344 nm
absorption maximum (in CS(C)=O): 349 nm
absorption maximum (in Cc1ccccc1): 353 nm
absorption maximum (in ClC(Cl)Cl): 351 nm
absorption maximum (in ClCCl): 348 nm

Structure (SMILES): Cc1cc2c(o1)c(C)cc1ccc(=O)oc12
absorption maximum (in C1CCCCC1): 330 nm
absorption maximum (in C1COCCO1): 315 nm
absorption maximum (in CC#N): 315 nm
absorption maximum (in CCO): 305 nm
absorption maximum (in OCC(F)(F)F): 310 nm

Structure (SMILES): COc1ccc(C2=N/C(=C\c3ccc(C#N)cc3)C(=O)N2)cc1OC
absorption maximum (in C1COCCO1): 405 nm

Structure (SMILES): C#CC1CN2CCC1CC2[C@@H](O)c1ccnc2ccc(OC)cc12 (stereo partly drawn)
absorption maximum (in C1CCOC1): 332 nm
absorption maximum (in CC#N): 332 nm
absorption maximum (in CCCC#N): 332 nm
absorption maximum (in Cc1ccccc1): 332 nm
absorption maximum (in ClCCl): 333 nm

Structure (SMILES): c1ccc(-c2nc(-c3ccccc3)nc(-c3ccc(-n4c5ccccc5c5cc6c7ccccc7n7c8ccccc8c(c54)c67)cc3)n2)cc1
absorption maximum (in Cc1ccccc1): 383 nm

Structure (SMILES): CC1(C)c2ccccc2N(c2ccc(-c3cccc(C#N)c3)cc2)c2ccccc21
absorption maximum (in Cc1ccccc1): 344 nm

Structure (SMILES): COc1cccc(/C=C/C(=O)c2c(O)cc(C)oc2=O)c1
absorption maximum (in CC#N): 373 nm
absorption maximum (in ClCCl): 377 nm

Structure (SMILES): CCn1c(=O)nc2n(C)c3cc(C)ccc3nc-2c1=O
absorption maximum (in C1COCCO1): 443 nm
absorption maximum (in CC#N): 445 nm
absorption maximum (in CO): 446 nm
absorption maximum (in ClCCCl): 448 nm

Structure (SMILES): c1ccc(N2c3ccccc3Sc3cc(-c4cccc5nc6ccccc6cc45)ccc32)cc1
absorption maximum (in C1CCOC1): 407 nm
absorption maximum (in CC#N): 407 nm
absorption maximum (in CC(C)=O): 407 nm
absorption maximum (in CC(C)OC(C)C): 407 nm
absorption maximum (in CCCCCC): 407 nm
absorption maximum (in CCCCOCCCC): 407 nm
absorption maximum (in CCN(CC)CC): 407 nm
absorption maximum (in CCOC(C)=O): 407 nm
absorption maximum (in CCOCC): 407 nm
absorption maximum (in CN(C)C=O): 407 nm
absorption maximum (in ClCCl): 407 nm

Structure (SMILES): CC(C)(C)c1ccc2c(c1)c1cc(C(C)(C)C)ccc1n2-c1ccc(-c2nc3c(C#N)ccc(C#N)c3nc2-c2ccc(-n3c4ccc(C(C)(C)C)cc4c4cc(C(C)(C)C)ccc43)cc2)cc1
absorption maximum (in Cc1ccccc1): 467 nm

Structure (SMILES): CN1CCN(c2ccc3c4c(cccc24)C(=O)c2ccccc2-3)CC1
absorption maximum (in C1CCCCC1): 428.2 nm
absorption maximum (in C1CCOC1): 446 nm
absorption maximum (in C1COCCO1): 442.8 nm
absorption maximum (in CC1COC(=O)O1): 459 nm
absorption maximum (in CC#N): 453.8 nm
absorption maximum (in CC(C)=O): 449.6 nm
absorption maximum (in CCCCCCCCO): 451 nm
absorption maximum (in CCCCCO): 456.4 nm
absorption maximum (in CCCCO): 454.6 nm
absorption maximum (in CCCO): 455.4 nm
absorption maximum (in CCO): 455.4 nm
absorption maximum (in CCOC(C)=O): 443 nm
absorption maximum (in CN(C)C=O): 454.4 nm
absorption maximum (in CO): 456.4 nm
absorption maximum (in CS(C)=O): 460.8 nm
absorption maximum (in Cc1ccccc1): 443.8 nm
absorption maximum (in ClC(Cl)Cl): 455.4 nm

Structure (SMILES): Cc1cc(C)c(B(c2cc3ccc4cccc5ccc(c2)c3c45)c2c(C)cc(C)cc2C)c(C)c1
absorption maximum (in Cc1ccccc1): 413 nm

Structure (SMILES): CCN(CC)c1ccc2c(-c3ccccc3C(=O)O)c3c([o+]c2c1)/C(=C/c1nc(C)n2ccccc12)CCC3
absorption maximum (in ClCCl): 701 nm

Second part, the compound after the results:

absorption maximum (in ClCCl): 394 nm
Structure (SMILES): O=c1c2ccccc2n(-c2ccc(-c3ccc(-n4c5ccccc5c5ccccc54)cc3)cc2)c2ccccc12

absorption maximum (in CO): 400 nm
Structure (SMILES): Cc1cc(C)c(B(c2cc(C#Cc3ccccc3)sc2-c2sc(C#Cc3ccccc3)cc2P(=O)(c2ccccc2)c2ccccc2)c2c(C)cc(C)cc2C)c(C)c1

absorption maximum (in ClCCl): 537 nm
Structure (SMILES): Cc1cc(C)c(C2=C3C=C(/C=C/C(=O)OCc4ccccc4)C=[N+]3[B-](F)(F)n3cccc32)c(C)c1

absorption maximum (in ClCCl): 304 nm
Structure (SMILES): Cc1cc2ccccc2c2c1c1ccccc1n2-c1ccc(N(c2ccccc2)c2ccccc2)cc1

absorption maximum (in ClCCl): 603 nm
Structure (SMILES): CC(C)[Si](C#Cc1c2nc3ccccc3nc2c(C#C[Si](C(C)C)(C(C)C)C(C)C)c2nc3c4ccccc4c(=O)c4ccccc4c3nc12)(C(C)C)C(C)C

absorption maximum (in CC#N): 308 nm
Structure (SMILES): COc1ccc(C#Cc2ccc3ccc(=O)oc3c2)cc1

absorption maximum (in C1CCOC1): 396.5 nm
absorption maximum (in CC#N): 396 nm
absorption maximum (in CCO): 400 nm
absorption maximum (in CN(C)C=O): 409 nm
absorption maximum (in CO): 400 nm
absorption maximum (in CS(C)=O): 405.5 nm
Structure (SMILES): CSc1sc(C(=O)c2ccccc2)c2nn[nH]c(=O)c12

absorption maximum (in ClCCl): 635 nm
Structure (SMILES): COc1ccc(-c2c3cc4ccccc4cc3c(C#Cc3ccccc3)c3cc4ccccc4cc23)cc1

absorption maximum (in C1CCCCC1): 291.46 nm and 286 nm
Structure (SMILES): c1ccc2ccccc2c1

absorption maximum (in ClCCl): 410 nm
Structure (SMILES): O=C(O)C1=C(C(=O)O)C2=C[C@H]3c4ccccc4[C@]2(S1)c1ccccc13

absorption maximum (in CC#N): 428.3 nm
absorption maximum (in CCO): 426.3 nm
absorption maximum (in CO): 432.1 nm
absorption maximum (in CS(C)=O): 434.3 nm
Structure (SMILES): Cn1c2ccccc2[c+](-c2ccccc2)c2cc([N+](=O)[O-])ccc21

absorption maximum (in ClC(Cl)Cl): 404 nm
Structure (SMILES): C[Si](C)(C)C#C[Si](c1c2ccccc2cc2ccccc12)(c1c2ccccc2cc2ccccc12)c1c2ccccc2cc2ccccc12

absorption maximum (in ClCCl): 379 nm
Structure (SMILES): CN(C)c1ccc(/C=C/c2ncccn2)cc1

absorption maximum (in CC1CCCO1): 475 nm
Structure (SMILES): COc1c(Br)c2cc(=O)oc3ccc4cccc1c4c32

absorption maximum (in ClCCl): 337 nm
Structure (SMILES): CC(C)(C)c1cc(-c2cc3c(cc(-c4cc(C(C)(C)C)cc(C(C)(C)C)c4)n3-c3ccc(C(=C(c4ccccc4)c4ccccc4)c4ccccc4)cc3)n2-c2ccc(C(=C(c3ccccc3)c3ccccc3)c3ccccc3)cc2)cc(C(C)(C)C)c1

absorption maximum (in CCOC(C)=O): 471 nm
Structure (SMILES): COC(=O)c1cc(/N=N/c2cc3c4c(c2)CCCN4CCC3)cc(C(=O)OC)c1

absorption maximum (in C1CCOC1): 353 nm
Structure (SMILES): N#Cc1c(N2CCCCC2)cc(-c2cccc3ccccc23)c2c1CCc1ccccc1-2

absorption maximum (in CCO): 344 nm
Structure (SMILES): O=c1c2cc(F)c(N3CCOCC3)cc2oc2cc(N3CCOCC3)c(F)cc12

absorption maximum (in CO): 564 nm
Structure (SMILES): CC1=CC(/C=C/c2ccc(OCCCN=[N+]=[N-])cc2)=[N+]2C1=C(c1ccccc1)c1c(C)cc(C)n1[B-]2(F)F

absorption maximum (in ClC(Cl)Cl): 348 nm
Structure (SMILES): CC(C)(C)c1cccc2c1oc1nc3oc4ccc(-n5c6ccccc6c6ccccc65)cc4c3cc12

absorption maximum (in ClC(Cl)Cl): 348 nm
Structure (SMILES): CC(C)(C)c1ccc2oc3nc4oc5ccc(-n6c7ccccc7c7ccccc76)cc5c4cc3c2c1

absorption maximum (in ClCCl): 402 nm
Structure (SMILES): Cc1cc(-c2ccc(-c3ccccc3)cc2)cc(C)[o+]1

absorption maximum (in ClC(Cl)Cl): 390 nm
Structure (SMILES): C(=N\c1ccc(-c2cn3nc(-c4cccs4)sc3n2)cc1)/c1ccc(N(c2ccccc2)c2ccccc2)cc1

absorption maximum (in CC#N): 451 nm
Structure (SMILES): COC(=O)/C=C/c1sc(-c2ccc(N(C)C)cc2)c(-c2ccc(OC)cc2)c1O

absorption maximum (in ClC(Cl)Cl): 570 nm
Structure (SMILES): CCCCN1C(=O)c2cc(Oc3ccc(C(C)(C)C)cc3)c3c4c(Oc5ccc(C(C)(C)C)cc5)c(Oc5ccc(C(C)(C)C)cc5)c5c6c(cc(Oc7ccc(C(C)(C)C)cc7)c(c7c(Oc8ccc(C(C)(C)C)cc8)c(Oc8ccc(C(C)(C)C)cc8)c(c2c37)C1=O)c64)C(=O)N(CCCC)C5=O
